Target: TBK1 (Homo sapiens (Human), UniProt Q9UHD2)
Assay: TBK1 low ATP kinase assay (in vitro assay 1)
Format: biochemical
Conditions: in vitro assay 1, read-out: TBK1 low ATP kinase assay IC50

Chain of TBK1 (Q9UHD2 whole entry): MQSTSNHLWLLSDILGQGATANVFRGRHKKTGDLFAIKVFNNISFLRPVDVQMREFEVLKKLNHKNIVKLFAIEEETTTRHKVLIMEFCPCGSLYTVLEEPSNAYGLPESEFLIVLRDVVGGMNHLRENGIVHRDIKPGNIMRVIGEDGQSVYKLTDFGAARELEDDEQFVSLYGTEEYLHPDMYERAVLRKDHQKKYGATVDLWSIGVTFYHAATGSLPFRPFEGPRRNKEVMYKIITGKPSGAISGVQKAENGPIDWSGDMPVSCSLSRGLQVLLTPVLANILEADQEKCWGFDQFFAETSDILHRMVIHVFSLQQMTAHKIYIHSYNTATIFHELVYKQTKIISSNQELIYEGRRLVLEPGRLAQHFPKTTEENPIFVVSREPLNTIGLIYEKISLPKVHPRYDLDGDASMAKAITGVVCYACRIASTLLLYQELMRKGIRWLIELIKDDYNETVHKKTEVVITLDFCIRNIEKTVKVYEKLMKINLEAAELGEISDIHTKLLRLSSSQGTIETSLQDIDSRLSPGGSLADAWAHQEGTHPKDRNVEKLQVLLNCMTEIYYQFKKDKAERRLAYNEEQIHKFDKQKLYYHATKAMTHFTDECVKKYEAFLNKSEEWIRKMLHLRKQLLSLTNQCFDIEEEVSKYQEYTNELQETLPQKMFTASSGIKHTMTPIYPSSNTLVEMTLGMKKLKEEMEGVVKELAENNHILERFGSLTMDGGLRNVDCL

IC50 [nM] | SMILES
110 | O=C(CC(F)(F)F)N1CCN(Cc2ccnc(Nc3nc4ccc(-c5ncnc6c5COC6)cc4[nH]3)c2)CC1 [Example 182.02, 1-{4-[(2-{[6-(5,7-dihydrofuro[3,4-d]pyrimidin-4-yl)-1H-benzimidazol-2-yl]amino}pyridin-4-yl)methyl]piperazin-1-yl}-3,3,3-trifluoropropan-1-one]
7280 | Cc1c(-c2ccc3nc(Nc4cc(CN5CCN(C(=O)OC(C)(C)C)CC5)ccn4)[nH]c3c2)ncnc1C(F)(F)F [Example 183.01, tert-butyl 4-{[2-({6-[5-methyl-6-(trifluoromethyl)pyrimidin-4-yl]-1H-benzimidazol-2-yl}amino)pyridin-4-yl]methyl}piperazine-1-carboxylate]
216 | Cc1cncnc1-c1ccc2nc(Nc3cc(CN4CCN(C(=O)C5CC5)CC4)ccn3)[nH]c2c1 [Example 184.03, cyclopropyl{4-[(2-{[6-(5-methylpyrimidin-4-yl)-1H-benzimidazol-2-yl]amino}pyridin-4-yl)methyl]piperazin-1-yl}methanone]
212 | COc1nc(Cl)cc(-c2ccc3nc(Nc4cc(CN5CCN(C(=O)OC(C)(C)C)CC5)ccn4)[nH]c3c2)n1 [Example 185.01, tert-butyl 4-[(2-{[6-(6-chloro-2-methoxypyrimidin-4-yl)-1H-benzimidazol-2-yl]amino}pyridin-4-yl)methyl]piperazine-1-carboxylate]
28.6 | COc1nc(-c2ccc3nc(Nc4cc(CN5CCN(C(=O)CC(F)(F)F)CC5)ccn4)[nH]c3c2)cc(N(C)C)n1 [Example 189.02, 1-(4-{[2-({6-[6-(dimethylamino)-2-methoxypyrimidin-4-yl]-1H-benzimidazol-2-yl}amino)pyridin-4-yl]methyl}piperazin-1-yl)-3,3,3-trifluoropropan-1-one]
95.3 | O=C(CC(F)(F)F)N1CCN(Cc2ccnc(Nc3nc4ccc(-c5ncnc(NCC6CCC6)c5F)cc4[nH]3)c2)CC1 [Example 191.02, 1-[4-({2-[(6-{6-[(cyclobutylmethyl)amino]-5-fluoropyrimidin-4-yl}-1H-benzimidazol-2-yl)amino]pyridin-4-yl}methyl)piperazin-1-yl]-3,3,3-trifluoropropan-1-one]
18.3 | O=C(CC(F)(F)F)N1CCN(Cc2ccnc(Nc3nc4ccc(-c5ncnc(NC6CC6)c5F)cc4[nH]3)c2)CC1 [Example 192.02, 1-(4-{[2-({6-[6-(cyclopropylamino)-5-fluoropyrimidin-4-yl]-1H-benzimidazol-2-yl}amino)pyridin-4-yl]methyl}piperazin-1-yl)-3,3,3-trifluoropropan-1-one]
17.8 | CC(C)Nc1ncnc(-c2ccc3nc(Nc4cc(CN5CCN(C(=O)C6CC6)CC5)ccn4)[nH]c3c2)c1F [Example 193.03, cyclopropyl(4-{[2-({6-[5-fluoro-6-(propan-2-ylamino)pyrimidin-4-yl]-1H-benzimidazol-2-yl}amino)pyridin-4-yl]methyl}piperazin-1-yl)methanone]
105 | CC(C)(C)OC(=O)N1CCN(Cc2ccnc(Nc3nc4ccc(-c5ncnc(NCC6CC6)c5F)cc4[nH]3)c2)CC1 [Example 195.01, tert-butyl 4-({2-[(6-{6-[(cyclopropylmethyl)amino]-5-fluoropyrimidin-4-yl}-1H-benzimidazol-2-yl)amino]pyridin-4-yl}methyl)piperazine-1-carboxylate]
1830 | CN(C)c1nccnc1-c1ccc2nc(Nc3cc(CN4CCN(C(=O)CC(F)(F)F)CC4)ccn3)[nH]c2c1 [Example 196.02, 1-(4-{[2-({6-[3-(dimethylamino)pyrazin-2-yl]-1H-benzimidazol-2-yl}amino)pyridin-4-yl]methyl}piperazin-1-yl)-3,3,3-trifluoropropan-1-one]
1420 | CN(C)c1nccnc1-c1ccc2nc(Nc3cc(CN4CCN(C(=O)C5CC5)CC4)ccn3)[nH]c2c1 [Example 196.03, cyclopropyl(4-{[2-({6-[3-(dimethylamino)pyrazin-2-yl]-1H-benzimidazol-2-yl}amino)pyridin-4-yl]methyl}piperazin-1-yl)methanone]

Second part, the molecule before the results:

SMILES | IC50 [nM]
CN(C)c1ccnc(-c2ccc3nc(Nc4cc(CN5CCN(C(=O)CC(F)(F)F)CC5)ccn4)[nH]c3c2)n1 [Example 181.02, 1-(4-{[2-({6-[4-(dimethylamino)pyrimidin-2-yl]-1H-benzimidazol-2-yl}amino)pyridin-4-yl]methyl}piperazin-1-yl)-3,3,3-trifluoropropan-1-one] | 152
CN(C)c1ccnc(-c2ccc3nc(Nc4cc(CN5CCN(C(=O)C6CC6)CC5)ccn4)[nH]c3c2)n1 [Example 181.03, cyclopropyl(4-{[2-({6-[4-(dimethylamino)pyrimidin-2-yl]-1H-benzimidazol-2-yl}amino)pyridin-4-yl]methyl}piperazin-1-yl)methanone] | 362
CC(C)(C)OC(=O)N1CCN(Cc2ccnc(Nc3nc4ccc(-c5ncnc6c5COC6)cc4[nH]3)c2)CC1 [Example 182.01, tert-butyl 4-[(2-{[6-(5,7-dihydrofuro[3,4-d]pyrimidin-4-yl)-1H-benzimidazol-2-yl]amino}pyridin-4-yl)methyl]piperazine-1-carboxylate] | 275
O=C(C1CC1)N1CCN(Cc2ccnc(Nc3nc4ccc(-c5ncnc6c5COC6)cc4[nH]3)c2)CC1 [Example 182.03, cyclopropyl{4-[(2-{[6-(5,7-dihydrofuro[3,4-d]pyrimidin-4-yl)-1H-benzimidazol-2-yl]amino}pyridin-4-yl)methyl]piperazin-1-yl}methanone] | 136
Cc1c(-c2ccc3nc(Nc4cc(CN5CCN(C(=O)CC(F)(F)F)CC5)ccn4)[nH]c3c2)ncnc1C(F)(F)F [Example 183.02, 3,3,3-trifluoro-1-(4-{[2-({6-[5-methyl-6-(trifluoromethyl)pyrimidin-4-yl]-1H-benzimidazol-2-yl}amino)pyridin-4-yl]methyl}piperazin-1-yl)propan-1-one] | 2100
Cc1c(-c2ccc3nc(Nc4cc(CN5CCN(C(=O)C6CC6)CC5)ccn4)[nH]c3c2)ncnc1C(F)(F)F [Example 183.03, cyclopropyl(4-{[2-({6-[5-methyl-6-(trifluoromethyl)pyrimidin-4-yl]-1H-benzimidazol-2-yl}amino)pyridin-4-yl]methyl}piperazin-1-yl)methanone] | 2240
Cc1cncnc1-c1ccc2nc(Nc3cc(CN4CCN(C(=O)CC(F)(F)F)CC4)ccn3)[nH]c2c1 [Example 184.02, 3,3,3-trifluoro-1-{4-[(2-{[6-(5-methylpyrimidin-4-yl)-1H-benzimidazol-2-yl]amino}pyridin-4-yl)methyl]piperazin-1-yl}propan-1-one] | 201
Cc1nc(Cl)cc(-c2ccc3nc(Nc4cc(CN5CCN(C(=O)OC(C)(C)C)CC5)ccn4)[nH]c3c2)n1 [Example 186.01, tert-butyl 4-[(2-{[6-(6-chloro-2-methylpyrimidin-4-yl)-1H-benzimidazol-2-yl]amino}pyridin-4-yl)methyl]piperazine-1-carboxylate] | 59.1
Cc1nc(-c2ccc3nc(Nc4cc(CN5CCN(C(=O)CC(F)(F)F)CC5)ccn4)[nH]c3c2)cc(N(C)C)n1 [Example 190.02, 1-(4-{[2-({6-[6-(dimethylamino)-2-methylpyrimidin-4-yl]-1H-benzimidazol-2-yl}amino)pyridin-4-yl]methyl}piperazin-1-yl)-3,3,3-trifluoropropan-1-one] | 868
O=C(C1CC1)N1CCN(Cc2ccnc(Nc3nc4ccc(-c5ncnc(NCC6CCC6)c5F)cc4[nH]3)c2)CC1 [Example 191.03] | 94.8
O=C(C1CC1)N1CCN(Cc2ccnc(Nc3nc4ccc(-c5ncnc(NC6CC6)c5F)cc4[nH]3)c2)CC1 [Example 192.03, cyclopropyl(4-{[2-({6-[6-(cyclopropylamino)-5-fluoropyrimidin-4-yl]-1H-benzimidazol-2-yl}amino)pyridin-4-yl]mnethyl}piperazin-1-yl)methanone] | 8.3
CC(C)Nc1ncnc(-c2ccc3nc(Nc4cc(CN5CCN(C(=O)OC(C)(C)C)CC5)ccn4)[nH]c3c2)c1F [Example 193.01, tert-butyl 4-{[2-({6-[5-fluoro-6-(propan-2-ylamino)pyrimidin-4-yl]-1H-benzimidazol-2-yl}amino)pyridin-4-yl]methyl}piperazine-1-carboxylate] | 42.1
CC(C)Nc1ncnc(-c2ccc3nc(Nc4cc(CN5CCN(C(=O)CC(F)(F)F)CC5)ccn4)[nH]c3c2)c1F [Example 193.02, 3,3,3-trifluoro-1-(4-{[2-({6-[5-fluoro-6-(propan-2-ylamino)pyrimidin-4-yl]-1H-benzimidazol-2-yl}amino)pyridin-4-yl]methyl}piperazin-1-yl)propan-1-one] | 34.6
O=C(CC(F)(F)F)N1CCN(Cc2ccnc(Nc3nc4ccc(-c5ncnc(NC6CCC6)c5F)cc4[nH]3)c2)CC1 [Example 194.02, 1-(4-{[2-({6-[6-(cyclobutylamino)-5-fluoropyrimidin-4-yl]-1H-benzimidazol-2-yl}amino)pyridin-4-yl]methyl}piperazin-1-yl)-3,3,3-trifluoropropan-1-one] | 45.9
O=C(C1CC1)N1CCN(Cc2ccnc(Nc3nc4ccc(-c5ncnc(NC6CCC6)c5F)cc4[nH]3)c2)CC1 [Example 194.03, (4-{[2-({6-[6-(cyclobutylamino)-5-fluoropyrimidin-4-yl]-1H-benzimidazol-2-yl}amino)pyridin-4-yl]methyl}piperazin-1-yl)(cyclopropyl)methanone] | 49.4
O=C(CC(F)(F)F)N1CCN(Cc2ccnc(Nc3nc4ccc(-c5ncnc(NCC6CC6)c5F)cc4[nH]3)c2)CC1 [Example 195.02, 1-[4-({2-[(6-{6-[(cyclopropylmethyl)amino]-5-fluoropyrimidin-4-yl}1H-benzimidazol-2-yl)amino]pyridin-4-yl}methyl)piperazin-1-yl]-3,3,3-trifluoropropan-1-one] | 33.7
O=C(C1CC1)N1CCN(Cc2ccnc(Nc3nc4ccc(-c5ncnc(NCC6CC6)c5F)cc4[nH]3)c2)CC1 [Example 195.03, cyclopropyl[4-({2-[(6-{6-[(cyclopropylmethyl)amino]-5-fluoropyrimidin-4-yl}-1H-benzimidazol-2-yl)amino]pyridin-4-yl}methyl)piperazin-1-yl]methanone] | 34.1

Reference: patent publication US10894784B2, “Heteroarylbenzimidazole compounds” (BAYER PHARMA AKTIENGESELLSCHAFT, priority 2015, dated 2021)
